# Results as given in publication PMC12561453, “Synthesis and Structure–Activity Relationship Study of 2-(amino)quinazolin-4(3H)-one Derivatives as Potential Inhibitors of Methicillin-Resistant Staphylococcus aureus (MRSA)” (Antibiotics, 2025).
# Where two headings read alike, the source gives them in different places.
# Columns and labels:
# S. aureus USA300 JE2 = assay: Broth microdilution dose-response, S. aureus USA300 JE2 (MRSA); assay type: cell-based, Staphylococcus aureus; conditions: for MIC50: Staphylococcus aureus, USA300, USA300 JE2, methicillin-resistant, OD600 after 18–24 h, read-out: USA300 MIC50; for antibacterial activity (in words): JE2; for fold better antibacterial activity against JE2 compared to compound 1: JE2, versus compound 1
# From the text: (§1) The antistaphylococcal activities (MIC50) of the synthesized compounds were examined via a previously described broth microdilution method against two S. aureus strains: ATCC25923, a methicillin-sensitive reference strain, and JE2, a methicillin-resistant strain of the USA300 lineage (Figure 2, Table 1).
# (§2) Staphylococcus aureus USA300, a methicillin-resistant strain, was obtained from the Nebraska Transposon Mutant Library. Staphylococcus aureus ATCC25923, a pan-drug-susceptible strain, was purchased from the American Type Culture Collection (ATCC) (Manassas, VA, USA). S. aureus strains were grown in Cation-Adjusted Mueller–Hinton broth (CAMHB) (Difco) at 37 °C. Bacterial strain stocks were stored in vials with 25% glycerol at −80 °C. For each experiment, overnight cultures were prepared by inoculating a frozen bacterial strain stock in 10 mL of CAMHB medium and incubating at 37 °C in a shaking incubator (180 rpm). For the preliminary screen and dose–response experiments, 100 µL of overnight culture was inoculated into 10 mL of fresh CAMHB and incubated for 3 h at 37 °C and 180 rpm.
# (§3) Antibiotic susceptibility assay was tested according to modified Clinical and Laboratory Standards Institute (CLSI) laboratory guidelines for broth microdilution assays. S. aureus was cultured in CAMHB, and bacterial cells were prepared with an OD600 of 0.005. DRC plates were prepared by adding 40 µL of bacterial suspension to each well, where 10 µL of each compound had been dispensed for […] of two-fold serial dilutions starting at […]. After incubation of the plates at 37 °C for 18–24 h with 5% CO2, the growth of S. aureus was detected by measuring the OD600nm using an Ensight (Revvity) spectrometer (Revvity, Waltham, MA, USA).
# (§4) Figure 2 In vitro antibacterial activities of 2-(amino)quinazolin-4(3H)-one derivatives. S. aureus ATCC25923 (blue) and USA300 JE (orange) strains were incubated with serial dilutions of 2-(amino)quinazolin-4(3H)-one derivatives (0.19–100 µM) for 18–24 h. The dose–responses were observed by measuring OD600nm. The plots were drawn from each group of strains with nonlinear curve fits.
# S. aureus ATCC25923 = assay: Broth microdilution dose-response, S. aureus ATCC25923; assay type: cell-based, Staphylococcus aureus; conditions: for MIC50: OD600 after 18–24 h, read-out: ATCC25923 MIC50; for antibacterial activity (in words): ATCC25923
# From the text: as §1, §2, §3, §4
# [1] = tested on: S. aureus USA300 JE2 expressing GFP in H460 cells; assay: microbe, parasite or virus in culture; assay type: cell-based, Staphylococcus aureus; conditions: for MIC50: Staphylococcus aureus, USA300, 24 h, read-out: H460 Assay MIC50 (MIC50 ex vivo)
# From the text: Staphylococcus aureus, including MRSA, can invade host cells and replicate intracellularly, which complicates treatment with current therapies. To evaluate the intracellular antibacterial activities of the selected compounds, the fifteen compounds tested for cytotoxicity were further assessed using a cell infection model based on H460 human lung epithelial cells, which mimic MRSA-mediated pneumonia. H460 cells were infected with the USA300 JE2 expressing green fluorescent protein (GFP) and subsequently treated with the compounds in a dose–response manner, along with three reference antibiotics: vancomycin, linezolid, and erythromycin. After 24 h of incubation, bacterial loads were quantified by measuring GFP fluorescence in each well. MIC50 values determined in the H460 infection model (MIC50 ex vivo) were generally higher than those obtained from the in vitro tests, likely due to either limited compound penetration into host cells or reduced antibacterial effect of the compounds against intracellular bacteria (Figure 3, Table 2). […] These findings underscore the potential of compound 6y as a promising lead for further development as a novel antistaphylococcal agent.
# To see the ex vivo antimicrobial activity of the compound, the human lung carcinoma cell line H460 (ATCC #HTB-177) was used. The H460 cells were cultured in RPMI 1640 medium with 10% fetal bovine serum (FBS) and in a 96-well microplate at 37 °C and 5% CO2. Cell lines were cultured for 2 days, until they reached full confluence in the well. S. aureus (USA300-containing and pCM29-encoding GFP) was cultured in CAMHB with 10 µg/mL of chloramphenicol, and bacterial cells were harvested. After washing the bacterial cells with phosphate-buffered saline (PBS) and suspending them in RPMI, infected H460 cells with S. aureus (1 × 10^7 CFU) and incubated them for 2.5 h. Samples were washed three times with PBS. Then, cells were treated with gentamicin (50 µg/mL of gentamicin in RPMI) and incubated for 1 h. Samples were washed with PBS, RPMI-containing diluted compounds were added, and then they were incubated at 37 °C in 5% CO2 for 24 h. To detect the Green fluorescent protein (GFP) signal, an Ensight multimode plate reader and Opera Phenix Plus (Revvity, Waltham, MA, USA) were used.
# Ex vivo infection model images were generated using the Opera Phenix Plus high-content imaging system. Images were obtained by a confocal microscope with a 20× water objective lens. To detect the bacteria fluorescence signal (GFP), the Alexa 488 channel (488 nm laser/500–550 filter, Thermo Fisher Scientific, Waltham, MA, USA) was used, and the brightfield channel was used for H460 cell images.
# Figure 3 Antibacterial activities of 2-(amino)quinazolin-4(3H)-one derivatives in the H460 infection model. H460 cells were infected with S. aureus USA300 JE strain expressing GFP, followed by treatment with serial dilutions of 2-(amino)quinazolin-4(3H)-one derivatives. After incubation at 37 °C for 24 h with 5% CO2, fluorescence signals of the bacteria were detected at 488 nm/510 nm using a multilabel plate reader.
# HepG2 cells = assay: In vitro cytotoxicity, HepG2 viability (resazurin); assay type: cell-based, human; conditions: Homo sapiens, HepG2, 24 h, HepG2 cells, 24 h, resazurin; read-out: HepG2 IC50
# Protocol: The in vitro cytotoxicity of the compounds was evaluated by measuring the viability of HepG2 cells, a human liver cell line, following treatment in a dose–response manner, as previously described. […] The efficacy window was calculated as the ratio of IC50 in HepG2 cells to MIC50 against JE2.
# To test cytotoxicity with compounds, the human liver cell line HepG2 (ATCC #HB-8065) was used for the assay. HepG2 was cultured in DMEM with 10% fetal bovine serum (FBS) in a 96-well microplate at 37 °C and 5% CO2. HepG2 cells were seeded at a final density of 5 × 10^4 cells/well, and DMEM-containing diluted compounds were added and incubated on the plates at 37 °C in 5% CO2 for 24 h. After that, resazurin (final concentration, 0.1 mg/mL) was added to each well and incubated on the plates at 37 °C in 5% CO2 for 2 h. To detect the fluorescence at 530 nm excitation and 590 nm emission, an Ensight multimode plate reader was used (Revvity, Waltham, MA, USA).
# [2] = Staphylococcus aureus, ATCC25923, methicillin-sensitive strain
MIC50 (S. aureus USA300 JE2),MIC50 (S. aureus ATCC25923; [2]),SMILES,antibacterial activity (in words) (S. aureus USA300 JE2),antibacterial activity (in words) (S. aureus ATCC25923),MIC50 [1],fold better antibacterial activity against JE2 compared to compound 1 (S. aureus USA300 JE2),IC50 (HepG2 cells),MIC50 (S. aureus ATCC25923; methicillin-sensitive strain),"H460 Assay MIC50 (MIC50 ex vivo) ([1]; H460 cells infected with USA300 JE2-GFP, 24 h, GFP fluorescence)"
> 100 µM,> 100 µM,"O=c1[nH]c(Nc2cc(Cl)cc(Cl)c2)nc2cc(N3CCOCC3)ccc12 [6b, 2-((3,5-Dichlorophenyl)amino)-7-morpholinoquinazolin-4(3H)-one]",complete abolition of antibacterial activity,complete abolition of antibacterial activity,,,,,
> 100 µM,> 100 µM,"COc1cc2nc(Nc3cc(Cl)cc(Cl)c3)[nH]c(=O)c2cc1OC [6c, 2-((3,5-Dichlorophenyl)amino)-6,7-dimethoxyquinazolin-4(3H)-one]",complete abolition of antibacterial activity,complete abolition of antibacterial activity,,,,,
> 100 µM,> 100 µM,"O=c1[nH]c(Nc2ccc(F)cc2F)nc2cc(Cl)ccc12 [6o, 7-Chloro-2-((2,4-difluorophenyl)amino)quinazolin-4(3H)-one]",complete loss of activity,complete loss of activity,,,,,
24.9 µM,35.1 µM,"COc1cccc(Nc2nc3cc(Cl)ccc3c(=O)[nH]2)c1 [6p, 7-Chloro-2-((3-methoxyphenyl)amino)quinazolin-4(3H)-one]",Decreased antibacterial activities,Decreased antibacterial activities,,,,,
> 100 µM,> 100 µM,"O=c1[nH]c(Nc2ccccc2Cl)nc2cc(Cl)ccc12 [6t, 7-Chloro-2-((2-chlorophenyl)amino)quinazolin-4(3H)-one]",complete loss of activity,complete loss of activity,,,,,

# More lines, now with the values behind:
SMILES,MIC50 (S. aureus USA300 JE2),MIC50 (S. aureus ATCC25923; [2]),antibacterial activity (in words) (S. aureus USA300 JE2),antibacterial activity (in words) (S. aureus ATCC25923),MIC50 [1],fold better antibacterial activity against JE2 compared to compound 1 (S. aureus USA300 JE2),IC50 (HepG2 cells),MIC50 (S. aureus ATCC25923; methicillin-sensitive strain),"H460 Assay MIC50 (MIC50 ex vivo) ([1]; H460 cells infected with USA300 JE2-GFP, 24 h, GFP fluorescence)"
"O=c1[nH]c(Nc2cc(Cl)cc(Cl)c2)nc2c(Cl)c(Cl)ccc12 [6a, 7,8-Dichloro-2-((3,5-dichlorophenyl)amino)quinazolin-4(3H)-one]",6.9 µM,10.8 µM,,,,,,,
"COc1ccc2c(=O)[nH]c(Nc3cc(Cl)cc(Cl)c3)nc2c1 [6d, 2-((3,5-Dichlorophenyl)amino)-7-methoxyquinazolin-4(3H)-one]",> 100 µM,> 100 µM,complete abolition of antibacterial activity,complete abolition of antibacterial activity,,,,,
"O=c1[nH]c(Nc2cc(Cl)cc(Cl)c2)nc2cc([N+](=O)[O-])ccc12 [6e, 2-((3,5-Dichlorophenyl)amino)-7-nitroquinazolin-4(3H)-one]",,3 to 6 µM,,,68.8 µM,at least 6.5 fold,9.3 µM,3.0 µM,
"O=c1[nH]c(Nc2cc(Cl)cc(Cl)c2)nc2c(Br)cc(Br)cc12 [6f, 6,8-Dibromo-2-((3,5-dichlorophenyl)amino)quinazolin-4(3H)-one]",,3 to 6 µM,,,8.7 µM,at least 6.5 fold,9.6 µM,6.0 µM,
"O=c1[nH]c(Nc2cc(Cl)cc(Cl)c2)nc2cc(F)c(F)cc12 [6g, 2-((3,5-Dichlorophenyl)amino)-6,7-difluoroquinazolin-4(3H)-one]",,3 to 6 µM,,,25.3 µM,at least 6.5 fold,12.9 µM,4.0 µM,
"O=c1[nH]c(Nc2ccccc2)nc2cc(Cl)ccc12 [6m, 7-Chloro-2-(phenylamino)quinazolin-4(3H)-one]",> 100 µM,> 100 µM,complete loss of activity,complete loss of activity,,,,,
"O=c1[nH]c(Nc2cccc(F)c2)nc2cc(Cl)ccc12 [6n, 7-Chloro-2-((3-fluorophenyl)amino)quinazolin-4(3H)-one]",,,,,43.8 µM,,19.7 µM,,
"O=c1[nH]c(Nc2cccc(C(F)(F)F)c2)nc2cc(Cl)ccc12 [6r, 7-Chloro-2-((3-(trifluoromethyl)phenyl)amino)quinazolin-4(3H)-one]",,2.1 to 4.5 µM,,,35.8 µM,,15.1 µM,3.1 µM,
"O=c1[nH]c(NCC2CCCCC2)nc2cc(Cl)ccc12 [6s, 7-Chloro-2-((cyclohexylmethyl)amino)quinazolin-4(3H)-one]",18.1 µM,35.5 µM,Decreased antibacterial activities,Decreased antibacterial activities,,,,,
"O=c1[nH]c(NCc2cc(F)cc(F)c2)nc2cc(Cl)ccc12 [6w, 7-Chloro-2-((3,5-difluorobenzyl)amino)quinazolin-4(3H)-one]",> 100 µM,> 100 µM,complete loss of activity,complete loss of activity,,,,,
"O=c1[nH]c(Nc2cc(Cl)cc(Cl)c2)nc2c(Cl)ccc(Cl)c12 [compound 1, 5,8-Dichloro-2-((3,5-dichlorophenyl)amino)quinazolin-4(3H)-one]",12.9 µM,3.9 µM,,,,,,,
"CC(=O)NC[C@H]1CN(c2ccc(N3CCOCC3)c(F)c2)C(=O)O1 [linezolid, reference compound]",,,,,,,,,1.2 µM
